Reference: patent US20040266766A1, “Selective urokinase inhibitors” (Wilex AG, priority 2001, published 2004)
Structures can show the parent of a compound that is named as a salt. Where two headings read alike, the source gives them in different places.

Tests used:
Thrombin = Thrombin (Homo sapiens, UniProt P00734); test: In vitro inhibition of thrombin (Ki according to Dixon); format: biochemical
Experimental: (§1) In order to determine the inhibitory activity, 200 μl Tris buffer (0.05 mol/l containing the inhibitor, 0.154 mol/l NaCl, pH 8.0), 25 μl substrate (Pefachrome uPA, Pefachrome PL or Pefabloc TH in H2O; Pentapharm Ltd, Basle, Switzerland) and 50 μl urokinase (Calbiochem-Novabiochem GmbH, Bad Soden, Germany) or another appropriate protease e.g. plasmin, thrombin or FXa are incubated for 10 minutes at 30° C. After ca. 30 minutes and 30 cycles the absorption is determined at 405 nm by means of a microplate reader (Mediators PHL, Aureon Biosystems, Vienna, Austria). The Ki values were determined according to Dixon by linear regression using a computer program.

FXa = FXa (Homo sapiens, UniProt P00742); test: In vitro inhibition of FXa (Ki according to Dixon); format: biochemical
FXa, sequence (P00742 235-488 limits assumed): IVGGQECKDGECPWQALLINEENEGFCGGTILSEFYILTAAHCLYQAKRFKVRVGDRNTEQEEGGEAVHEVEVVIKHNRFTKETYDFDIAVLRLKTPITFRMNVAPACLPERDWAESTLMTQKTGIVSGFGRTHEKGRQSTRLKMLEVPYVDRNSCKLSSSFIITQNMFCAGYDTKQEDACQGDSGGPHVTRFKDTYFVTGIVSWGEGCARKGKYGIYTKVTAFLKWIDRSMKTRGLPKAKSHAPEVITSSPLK
FXa, sequence (P00742 41-179 partner limits assumed): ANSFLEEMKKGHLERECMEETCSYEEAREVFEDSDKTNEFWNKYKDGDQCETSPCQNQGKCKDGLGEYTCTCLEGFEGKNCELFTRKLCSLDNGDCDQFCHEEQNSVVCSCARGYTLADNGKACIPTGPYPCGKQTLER
Experimental: as §1

Plasmin = Plasmin (Homo sapiens, UniProt P00747); test: In vitro inhibition of plasmin (Ki according to Dixon); format: biochemical
Plasmin, sequence (P00747 581-810 limits assumed, species assumed): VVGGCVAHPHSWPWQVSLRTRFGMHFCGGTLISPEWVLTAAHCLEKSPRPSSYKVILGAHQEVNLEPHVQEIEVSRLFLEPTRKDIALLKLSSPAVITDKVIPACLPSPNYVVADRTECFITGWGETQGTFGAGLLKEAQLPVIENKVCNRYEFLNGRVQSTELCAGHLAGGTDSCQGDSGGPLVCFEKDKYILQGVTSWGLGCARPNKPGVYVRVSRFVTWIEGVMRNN
Plasmin, sequence (P00747 97-580 partner limits assumed, species assumed): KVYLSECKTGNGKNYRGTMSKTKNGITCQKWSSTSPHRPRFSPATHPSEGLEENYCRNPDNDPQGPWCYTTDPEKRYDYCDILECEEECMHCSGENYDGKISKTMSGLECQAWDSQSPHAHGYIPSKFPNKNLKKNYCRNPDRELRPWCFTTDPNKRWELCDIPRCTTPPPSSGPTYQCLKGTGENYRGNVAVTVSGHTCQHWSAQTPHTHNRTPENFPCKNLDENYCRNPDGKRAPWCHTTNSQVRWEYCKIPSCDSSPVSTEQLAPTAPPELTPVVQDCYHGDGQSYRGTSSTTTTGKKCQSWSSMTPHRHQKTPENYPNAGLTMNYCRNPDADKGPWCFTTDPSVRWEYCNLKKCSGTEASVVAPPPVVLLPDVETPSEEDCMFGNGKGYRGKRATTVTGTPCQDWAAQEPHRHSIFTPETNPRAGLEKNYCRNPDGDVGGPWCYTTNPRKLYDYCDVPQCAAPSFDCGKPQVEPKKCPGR
Experimental: as §1

[1] = Oral bioavailability and plasma kinetics in mice (serum concentration); format: in vivo, Balb/c mice; settings: mouse; for concentration at 20 min / concentration at 40 min / concentration at 60 min: female, Balb/c, serum, po; for concentration at 20 min: sample at 20 minutes; for concentration at 40 min: sample at 40 minutes; for concentration at 60 min: sample at 60 minutes; for c in the serum 1st analysis / c in the serum 2nd analysis: 10 mg/kg i.v.
PK = PK (Homo sapiens, UniProt P03952); test: In vitro inhibition of PK (Ki); format: biochemical; settings: summary table
PK, sequence (P03952 20-638): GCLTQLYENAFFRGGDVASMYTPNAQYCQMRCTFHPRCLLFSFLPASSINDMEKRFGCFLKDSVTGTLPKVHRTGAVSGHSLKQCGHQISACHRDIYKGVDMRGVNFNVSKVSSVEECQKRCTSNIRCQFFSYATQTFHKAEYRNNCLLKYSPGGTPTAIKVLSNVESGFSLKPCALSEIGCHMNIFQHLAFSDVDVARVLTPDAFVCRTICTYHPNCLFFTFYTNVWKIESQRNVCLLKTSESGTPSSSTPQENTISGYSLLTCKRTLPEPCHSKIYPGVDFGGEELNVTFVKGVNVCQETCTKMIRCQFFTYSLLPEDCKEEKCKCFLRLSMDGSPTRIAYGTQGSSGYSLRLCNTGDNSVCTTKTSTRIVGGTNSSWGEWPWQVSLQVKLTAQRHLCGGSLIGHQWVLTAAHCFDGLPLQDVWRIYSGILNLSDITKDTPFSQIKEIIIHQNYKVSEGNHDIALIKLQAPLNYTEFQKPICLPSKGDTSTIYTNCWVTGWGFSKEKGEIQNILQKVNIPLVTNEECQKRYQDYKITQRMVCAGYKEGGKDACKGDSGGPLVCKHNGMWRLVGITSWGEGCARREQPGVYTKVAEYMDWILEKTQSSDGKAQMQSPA
Experimental: as §1

urokinase (uPA) = target: T1, urokinase (uPA) (Homo sapiens, UniProt P00749); test: In vitro inhibition of urokinase (Ki according to Dixon, chromogenic substrate); format: biochemical
T1 construct: purchased Calbiochem-Novabiochem GmbH, Bad Soden, Germany
Experimental: as §1

Caco-2 cell monolayers = test: Caco-assay: transport across Caco-2 cell monolayers; format: in vitro ADME, human; settings: for % amount in the basolateral compartment: 10 μg/ml apical, four hours
Experimental: Transport of the compounds WX-508, WXC-316, WXC-318, WXC-324, WXC-340, WX-532, WX-538, WX-550 and WX-582 across Caco-2 cell monolayers was investigated. In this experiment the bioavailability of the said compounds after oral administration was assessed.
Caco-2-cells (American Type Culture Collection, Rockville, Md., USA) were cultured in Dulbecco's modified Eagle medium (DMEM) (Life Technologies, Gibco BRL, UK) containing 10% vol/vol heat-denatured foetal calf serum (FCS), 1% vol/vol non-essential amino acids, 160 U/ml benzylpenicillin and 100 U/ml streptomycin (Sigma Chemical, St. Louis, Mo., USA). The cells are kept at 37° C. in an atmosphere comprising 95% air and 5% CO2 at 90% relative air humidity. The cells are cultured in […] culture flasks, the medium being replaced every second day and the cells are trypsinized once per week.
For the transport investigations the Caco-2 cells are cultured on porous polycarbonate filter membranes having a pore size of 0.4 μm and a surface of 4.7 cm^2 in clusters of 6 wells (Costar Transwell, Badhoevedorp, Netherlands). The cells are inoculated on each filter at an initial density of 10^4 cells/cm^2. These cells are kept at 37° C. in one of the atmospheres described above. The medium is replaced every second day for a period of three weeks.
On the day of the transport experiment the culture medium was replaced by the same volume of Hank's balanced saline solution (HBSS) buffered with 30 mM HEPES at pH 7.2 (transport medium) and the cells are allowed to equilibrate for 1 hour. Afterwards the apical medium is replaced by 1.5 ml of a solution containing one of the compounds in HBSS/HEPES (10 μg/ml). Cell monolayers are incubated for four hours. Samples of the apical and basolateral compartments are removed at the end of the experiments and used to quantitatively determine the transport of the respective compounds.
The transepithelial electric resistance (TEER) is measured before and after equilibration using a Milicell ERS meter which was connected to a pair of electrodes in order to ensure the integrity of the monolayers formed on the filters. TEER is also measured at the end of the experiments to ensure that the cell monolayer remains coherent.
Samples are taken from the apical and the basolateral side and analysed in a beta counter after adding a scintillation cocktail. All experiments were carried out three times.

mammary carcinoma BN-472 = test: Tumor spreading, tumor growth and metastasizing in a rat breast cancer model; format: in vivo, brown Norwegian rats; settings: 0.3 mg/kg daily subcutaneously, 4 weeks
Experimental: 10-25 mm^3 of transplantable metastasising mammary carcinoma BN-472 breast cancer tumor fragments from donor rats were transplanted orthotopically under the mammary fat pad. (Day 0) into 6 to 8 weeks old female brown Norwegian rats. Subcutaneous treatment was started 5 days after tumor inoculation. Each group consisted of 18 animals. The treatment group received a daily dose of 0.3 mg/kg body weight subcutaneously. The treatment-was carried out over a period of 4 weeks.
The dimensions of the subcutaneous tumors and the weight of the animals were determined weekly. At the end of the treatment the animals were sacrificed and tumor weights, organ weights and the number of metastases in relevant tissues were determined.
The data were analyzed using the SigmaStat Vers.2.03 statistical package. Tumor sizes, tumor weights and the weights of the organs were checked with the Shapiro-Wilk W-test for normality of distribution (Royston P., Approximating the Shapiro-Wilk W-test for non-normality. Statistics and Computing 1992, 2:117-119). For each parameter the Shapiro-Wilk W-tests were performed on all data (e.g., tumor weights of all rats), and separately for each treatment group. If one of the P-values was <0.05 the variable was considered to be abnormally distributed and the Mann-Whitney U-test was used to test for significance levels of differences. The Mann-Whitney U-test was used to test for differences in weights of the axillary lymph nodes, intra peritoneal lymph nodes, tumor, and the number of lung foci. Primary and metastatic tumor data at the end of the treatment period were graphically represented using the Box-Whisker graphs, with the box showing the inter-quartile range of values, with a horizontal line at the median value. Whiskers represent the 5th and 95th percentile of values, and the individual values are indicated by dots. The unadjusted level for statistical significance was α=0.05. All tests were two-sided.

[2] = 30 mg/kg, 30 mg/kg oral, read-out: c in the serum 1st analysis
[3] = 30 mg/kg, 30 mg/kg oral, read-out: c in the serum 2nd analysis
[4] = 300 mg/kg, 300 mg/kg oral, read-out: c in the serum 1st analysis
[5] = 300 mg/kg, 300 mg/kg oral, read-out: c in the serum 2nd analysis
[6] = list of test substances of Example 17, read-out: Ki human uPA
[7] = summary table, read-out: Ki uPA

| SMILES | Ki Thrombin (Thrombin) | Ki Thrombin (Thrombin; summary table) | Ki (FXa) [nM] | Ki Plasmin (Plasmin) | Ki Plasmin (Plasmin; summary table) | concentration at 20 min [1, 2] [ng/mL] | concentration at 20 min [1, 3] [ng/mL] | concentration at 40 min [1, 3] [ng/mL] | concentration at 60 min [1, 2] [ng/mL] | concentration at 60 min [1, 3] [ng/mL] | concentration at 20 min [1, 4] [ng/mL] | concentration at 40 min [1, 4] [ng/mL] | concentration at 60 min [1, 4] [ng/mL] | c in the serum 1st analysis ([1]; time of sample collection 10) [µg/mL] | c in the serum 1st analysis ([1]; time of sample collection 30) [µg/mL] | Ki (PK) [nM] | Ki (urokinase (uPA); [6]) [nM] | Ki (urokinase (uPA); read-out: Ki uPA) [nM] | Ki (urokinase (uPA); [7]) [nM] | % amount in the basolateral compartment (Caco-2 cell monolayers; first value column) [%] | further results |
| --- | --- | --- | --- | --- | --- | --- | --- | --- | --- | --- | --- | --- | --- | --- | --- | --- | --- | --- | --- | --- | --- |
| N=C(N)Nc1ccc(CNC(=O)CNC(=O)C(CO)NS(=O)(=O)Cc2cccc([N+](=O)[O-])c2)cc1 (stereo not drawn) [WX-C316, 3-Nitrobenzyl-sulfonyl-(D)-Ser-Gly-(4-guanidinobenzyl)amide hydrochloride] | no inh. at 100 μM *) | no inh. at 100 μM *) | 32400 | no inh. at 100 μM *) | no inh. at 100 μM *) | 500 | 600 | 7100 | 400 | 500 | 6000 | 21800 | 5300 | 12.4 | 2.7 | 875000 | 90 | 90 | 90 | 0.2 | concentration at 40 min [1, 2]: 5900 ng/mL; concentration at 20 min [1, 5]: 7200 ng/mL; concentration at 40 min [1, 5]: 32100 ng/mL; concentration at 60 min [1, 5]: 5800 ng/mL; c in the serum 1st analysis ([1]; time of sample collection 0): 45.4 µg/mL; c in the serum 2nd analysis ([1]; time of sample collection 0): 67.5 µg/mL; c in the serum 2nd analysis ([1]; time of sample collection 10): 14.3 µg/mL; c in the serum 2nd analysis ([1]; time of sample collection 30): 2.6 µg/mL; % amount in the basolateral compartment (Caco-2 cell monolayers; second value column): 0.2%; % amount in the basolateral compartment (Caco-2 cell monolayers; third value column): 3.6%; Caco-2 assay % basolateral (Caco-2 cell monolayers; first series, first value): 0.2%; Caco-2 assay % basolateral (Caco-2 cell monolayers; first series, second value): 0.2%; Caco-2 assay % basolateral (Caco-2 cell monolayers; first series, third value): 3.4%; Caco-2 assay % basolateral (Caco-2 cell monolayers; second series, first value): 0.1%; Caco-2 assay % basolateral (Caco-2 cell monolayers; second series, second value): 0.1%; Caco-2 assay % basolateral (Caco-2 cell monolayers; second series, third value): 3.6% |
| N=C(N)Nc1ccc(CNC(=O)CNC(=O)C(CO)NS(=O)(=O)Cc2cccc(Cl)c2)cc1 (stereo not drawn) [WX-C318, 3-Chlorobenzyl-sulfonyl-(D)-Ser-Gly-(4-guanidinobenzyl)amide hydrochloride] | no inh. at 100 μM *) | no inh. at 100 μM *) | 36000 | no inh. at 100 μM *) | no inh. at 100 μM *) | 100 | 200 | 50 | 200 | 200 | 100000 | 5400 | 7500 | 4.3 | 0.7 | 176000 | 47 | 47 | 47 | 0.4 | concentration at 20 min [1, 5]: 82600 ng/mL; concentration at 40 min [1, 5]: 6200 ng/mL; concentration at 60 min [1, 5]: 7700 ng/mL; c in the serum 2nd analysis ([1]; time of sample collection 0): 48.4 µg/mL; c in the serum 2nd analysis ([1]; time of sample collection 10): 5.5 µg/mL; c in the serum 2nd analysis ([1]; time of sample collection 30): 1.4 µg/mL; % amount in the basolateral compartment (Caco-2 cell monolayers; second value column): 1.0%; % amount in the basolateral compartment (Caco-2 cell monolayers; third value column): 4.5%; Caco-2 assay % basolateral (Caco-2 cell monolayers; first series, first value): 0.4%; Caco-2 assay % basolateral (Caco-2 cell monolayers; first series, second value): 1.0%; Caco-2 assay % basolateral (Caco-2 cell monolayers; first series, third value): 4.5%; Caco-2 assay % basolateral (Caco-2 cell monolayers; second series, first value): 0.2%; Caco-2 assay % basolateral (Caco-2 cell monolayers; second series, second value): 0.6%; Caco-2 assay % basolateral (Caco-2 cell monolayers; second series, third value): 7.0% |
| N=C(N)Nc1ccc(CNC(=O)CNC(=O)C(CO)NS(=O)(=O)Cc2ccc(Cl)cc2)cc1 (stereo not drawn) [WX-C340, 4-Chlorobenzyl-sulfonyl-(D)-Ser-Gly-(4-guanidinobenzyl)amide hydrochloride] | no inh. at 100 μM *) | no inh. at 100 μM *) | 34000 | no inh. at 100 μM *) | no inh. at 100 μM *) | 300 | 500 | 800 | 1400 | 2300 | 4500 | 4900 | 4300 | 5.3 | 1.7 | 216000 | 10 | 10 | 10 | 2.4 | reduction of the axillary lymph node weights (mammary carcinoma BN-472; compared with the control group, P=0.006): 73%; reduction in the number of lung foci (mammary carcinoma BN-472; compared with the control group, P≦0.001): 63%; reduction of the median tumor weight (mammary carcinoma BN-472; P=0.141): 29%; concentration at 40 min [1, 2]: 300 ng/mL; c in the serum 1st analysis ([1]; time of sample collection 0): 51.8 µg/mL; % amount in the basolateral compartment (Caco-2 cell monolayers; second value column): 0.2%; % amount in the basolateral compartment (Caco-2 cell monolayers; third value column): 0.1%; Caco-2 assay % basolateral (Caco-2 cell monolayers; first series, first value): 2.4%; Caco-2 assay % basolateral (Caco-2 cell monolayers; first series, second value): 0.2%; Caco-2 assay % basolateral (Caco-2 cell monolayers; first series, third value): 0.1%; Caco-2 assay % basolateral (Caco-2 cell monolayers; second series, first value): 2.3%; Caco-2 assay % basolateral (Caco-2 cell monolayers; second series, second value): 0.1%; Caco-2 assay % basolateral (Caco-2 cell monolayers; second series, third value): 0.1% |
